# Experimental data published in article PMC6028563, “Probing Substituents in the 1- and 3-Position: Tetrahydropyrazino-Annelated Water-Soluble Xanthine Derivatives as Multi-Target Drugs With Potent Adenosine Receptor Antagonistic Activity” (Frontiers in Chemistry, 2018).
# Read-outs that look alike come from different tables or passages of the source.
# Experiments:
# [1] = biological target: T1, human A2B AR (Homo sapiens, UniProt P29275); assay: Radioligand binding assay at human A2B AR vs. [^3H]PSB-603; settings: for Ki: CHO cell membranes, n = 2 (n = 3 where marked a), read-out: Ki ± SEM, A2B vs. [^3H]PSB-603; for inhibition at 1 µM: at 1,000 nM
# T1 construct: expressed in transfected cells; host or cells: CHO cells
# T1 sequence (P29275 1-332): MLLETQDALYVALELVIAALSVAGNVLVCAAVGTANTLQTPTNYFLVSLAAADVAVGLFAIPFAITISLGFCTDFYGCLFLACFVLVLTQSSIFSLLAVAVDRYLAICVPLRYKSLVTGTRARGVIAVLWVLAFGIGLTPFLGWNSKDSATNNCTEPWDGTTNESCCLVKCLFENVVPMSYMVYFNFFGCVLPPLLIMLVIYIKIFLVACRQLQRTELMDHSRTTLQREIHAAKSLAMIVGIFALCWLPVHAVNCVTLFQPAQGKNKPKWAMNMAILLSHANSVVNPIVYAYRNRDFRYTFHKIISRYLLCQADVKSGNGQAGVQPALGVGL
# How it was run: (§1)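 Membranes were prepared from rat brain cortex for A1 and from rat striatum for A2A, then used in radioligand displacement. For the human receptors, CHO cells recombinantly expressing a single AR subtype supplied the membranes.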
# [2] = biological target: T2, recombinant human MAO-A (Homo sapiens, UniProt P21397); assay: Monoamine oxidase assay (Amplex Red), MAO-A; type: biochemical; settings: for inhibition at 10 µM: at 10,000 nM, read-out: % inhibition at indicated concentration, Human MAO-A; for IC50: n = 3, read-out: IC50 ± SEM, Human MAO-A
# T2 construct: purchased Sigma-Aldrich M7316; host or cells: baculovirus-infected insect cells
# T2 sequence (P21397 1-527): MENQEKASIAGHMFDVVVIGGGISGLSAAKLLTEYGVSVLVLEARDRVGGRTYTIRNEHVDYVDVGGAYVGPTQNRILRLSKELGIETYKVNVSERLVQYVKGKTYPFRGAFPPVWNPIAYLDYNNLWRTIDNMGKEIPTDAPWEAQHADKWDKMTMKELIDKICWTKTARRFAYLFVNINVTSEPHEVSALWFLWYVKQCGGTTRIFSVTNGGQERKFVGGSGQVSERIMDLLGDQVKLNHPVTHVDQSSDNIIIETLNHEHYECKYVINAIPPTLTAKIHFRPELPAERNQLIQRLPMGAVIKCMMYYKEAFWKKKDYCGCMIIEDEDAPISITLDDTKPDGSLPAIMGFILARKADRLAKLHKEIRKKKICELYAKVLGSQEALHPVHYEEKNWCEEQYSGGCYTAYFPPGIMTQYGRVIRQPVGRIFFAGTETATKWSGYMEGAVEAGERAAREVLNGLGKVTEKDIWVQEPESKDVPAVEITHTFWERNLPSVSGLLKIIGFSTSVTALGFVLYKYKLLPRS
# How it was run: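 Recombinant human MAO-A and MAO-B, expressed in baculovirus-infected insect cells, were assayed by Amplex Red fluorometric detection. Rat MAO-B inhibition used mitochondria-enriched fractions from male Sprague Dawley rat liver.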
# [3] = Thermodynamic solubility measurements; type: physicochemical; settings: thermodynamic from solid
# From the text: This is expected to facilitate dissolution in the stomach. Depending on the substitution pattern they may also be well soluble at higher pH values (Brunschweiger et al., [2014]). In the present study we measured thermodynamic solubility of only very few compounds exemplarily (14a-e, 14g, 15f,g) and confirmed their high solubility at pH 1 (see Table S1 in Supplementary Material). Most of these compounds were still soluble at pH 7.4. The best soluble derivative was the 3-ethyl-1-methyl-8-m-fluorobenzyl derivative 14g with solubilities of >1.5 g/L (4.2 mM) at pH 1, 50 mg/L (0.14 mM) at pH 4, and 40 mg/L ([…]) at pH 7.4.
# Table S1. Solubility of selected compounds at three different pH values (in mg/mL).a
# Compound pH 1 pH 4 pH 7.4
# adetermined by thermodynamic solubility measurements.
# [4] = biological target: T3, human A2A AR (Homo sapiens, UniProt P29274); assay: Radioligand binding assay at human A2A AR vs. [^3H]MSX-2; settings: CHO cell membranes, n = 3, read-out: Ki ± SEM, A2A vs. [^3H]MSX-2
# T3 construct: expressed in transfected cells; host or cells: CHO cells
# T3 sequence (P29274 whole entry): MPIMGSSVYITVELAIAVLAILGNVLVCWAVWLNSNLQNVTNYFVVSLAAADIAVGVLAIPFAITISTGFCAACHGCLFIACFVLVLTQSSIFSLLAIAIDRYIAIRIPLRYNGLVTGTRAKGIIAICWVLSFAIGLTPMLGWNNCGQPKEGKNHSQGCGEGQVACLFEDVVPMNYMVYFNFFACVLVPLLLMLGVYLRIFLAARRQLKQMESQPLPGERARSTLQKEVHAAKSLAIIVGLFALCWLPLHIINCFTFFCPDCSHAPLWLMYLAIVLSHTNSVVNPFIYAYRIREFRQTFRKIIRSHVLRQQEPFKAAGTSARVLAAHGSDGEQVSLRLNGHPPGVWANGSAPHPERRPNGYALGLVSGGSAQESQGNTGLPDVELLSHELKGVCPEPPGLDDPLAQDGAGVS
# How it was run: as §1
# [5] = read-out: % inhibition of radioligand binding at indicated concentration, A2B vs. [^3H]PSB-603
# [6] = aqueous buffer, pH 4, thermodynamic solubility, read-out: Solubility, pH 4
# [7] = aqueous buffer, pH 7.4, thermodynamic solubility, read-out: Solubility, pH 7.4
# [8] = simulated gastric fluid, pH 1, thermodynamic solubility, read-out: Solubility, pH 1
Compound,Ki [1] [nM],"inhibition at 1 µM [1, 5] [%]",inhibition at 10 µM [2] [%],IC50 [2] [nM],"solubility [3, 6] [µg/mL]","solubility [3, 7] [µg/mL]","solubility [3, 8] [µg/mL]",Ki [4] [nM],"inhibition at 0.1 µM ([1]; at 100 nM, read-out: % inhibition of radioligand binding at indicated concentration, A2B vs. [^3H]PSB-603) [%]","solubility ([3]; aqueous solution, aqueous buffer, pH 4, molar value in brackets, read-out: solubility at pH 4) [µM]","solubility ([3]; aqueous solution, aqueous buffer, pH 4, read-out: solubility at pH 4) [µg/mL]","solubility ([3]; aqueous solution, aqueous buffer, pH 7.4, molar value in brackets, read-out: solubility at pH 7.4) [µM]","solubility ([3]; aqueous solution, aqueous buffer, pH 7.4, read-out: solubility at pH 7.4) [µg/mL]","solubility ([3]; aqueous solution, simulated gastric fluid, pH 1, molar value in brackets, read-out: solubility at pH 1) [µM]","solubility ([3]; aqueous solution, simulated gastric fluid, pH 1, read-out: solubility at pH 1) [µg/mL]"
"CCn1c(=O)c2c(nc3n2CCN(Cc2ccc(Br)cc2)C3)n(C)c1=O [Compound 14c, 8-(4-bromobenzyl)-3-ethyl-1-methyl-6,7,8,9-tetrahydropyrazino[2,1-f]purine-2,4(1H,3H)-dione]",> 1000,1,2,> 10000,6,3,1300,,,,,,,,
"CCn1c(=O)c2c(nc3n2CCN(Cc2cccc(Br)c2)C3)n(C)c1=O [Compound 14b, 8-(3-bromobenzyl)-3-ethyl-1-methyl-6,7,8,9-tetrahydropyrazino[2,1-f]purine-2,4(1H,3H)-dione]",> 1000,9,,,1,0.9,100,,,,,,,,
"CCn1c(=O)c2c(nc3n2CCN(Cc2ccccc2C(F)(F)F)C3)n(C)c1=O [Compound 14d, 3-ethyl-1-methyl-8-(2-(trifluoromethyl)benzyl)-6,7,8,9-tetrahydropyrazino[2,1-f]purine-2,4(1H,3H)-dione]",> 1000,2,5,> 10000,1,< 0.5,200,,,,,,,,
"CCn1c(=O)c2c(nc3n2CCN(Cc2cccc(F)c2)C3)n(C)c1=O [Compound 14g, 3-ethyl-8-(3-fluorobenzyl)-1-methyl-6,7,8,9-tetrahydropyrazino[2,1-f]purine-2,4(1H,3H)-dione]",> 100,,,,,,,,15,140,50,84,40,> 4200,> 1500
"CCn1c(=O)c2c(nc3n2CCN(Cc2cc(Br)ccc2F)C3)n(C)c1=O [Compound 14o, 8-(5-bromo-2-fluorobenzyl)-3-ethyl-1-methyl-6,7,8,9-tetrahydropyrazino[2,1-f]purine-2,4(1H,3H)-dione]",> 1000,11,15,> 10000,,,,1700,,,,,,,

# Next, values leading:
Ki [1] [nM],"inhibition at 1 µM [1, 5] [%]",inhibition at 10 µM [2] [%],IC50 [2] [nM],"solubility [3, 6] [µg/mL]","solubility [3, 7] [µg/mL]","solubility [3, 8] [µg/mL]",Ki [4] [nM],"inhibition at 0.1 µM ([1]; at 100 nM, read-out: % inhibition of radioligand binding at indicated concentration, A2B vs. [^3H]PSB-603) [%]","solubility ([3]; aqueous solution, aqueous buffer, pH 4, molar value in brackets, read-out: solubility at pH 4) [µM]","solubility ([3]; aqueous solution, aqueous buffer, pH 4, read-out: solubility at pH 4) [µg/mL]","solubility ([3]; aqueous solution, aqueous buffer, pH 7.4, molar value in brackets, read-out: solubility at pH 7.4) [µM]","solubility ([3]; aqueous solution, aqueous buffer, pH 7.4, read-out: solubility at pH 7.4) [µg/mL]","solubility ([3]; aqueous solution, simulated gastric fluid, pH 1, molar value in brackets, read-out: solubility at pH 1) [µM]","solubility ([3]; aqueous solution, simulated gastric fluid, pH 1, read-out: solubility at pH 1) [µg/mL]",Compound
> 1000,38,6,> 10000,,,,289 ± 85,,,,,,,,"C#CCn1c(=O)c2c(nc3n2CCN(c2cccc(OC)c2)C3)n(CC)c1=O [Compound 20c, 1-ethyl-8-(3-methoxyphenyl)-3-propargyl-6,7,8,9-tetrahydropyrazino[2,1-f]purine-2,4(1H,3H)-dione]"
> 1000,3,5,> 10000,,,,712 ± 129,,,,,,,,"C#CCn1c(=O)c2c(nc3n2CCN(Cc2cc(C(F)(F)F)ccc2Cl)C3)n(C)c1=O [Compound 19b, 8-(2-chloro-5-(trifluoromethyl)benzyl)-1-methyl-3-propargyl-6,7,8,9-tetrahydropyrazino[2,1-f]purine-2,4(1H,3H)-dione]"
> 1000,23,7,> 10000,,,,4110,,,,,,,,"CCn1c(=O)c2c(nc3n2CCN(Cc2cc(F)c(F)c(F)c2)C3)n(CC)c1=O [Compound 15r, 1,3-diethyl-8-(3,4,5-trifluorobenzyl)-6,7,8,9-tetrahydropyrazino[2,1-f]purine-2,4(1H,3H)-dione]"
> 1000,23,-4,> 10000,,,,613 ± 34,,,,,,,,"CCn1c(=O)c2c(nc3n2CCN(Cc2cc(C(F)(F)F)ccc2Cl)C3)n(CC)c1=O [Compound 15n, 8-(2-chloro-5-(trifluoromethyl)benzyl)-1,3-diethyl-6,7,8,9-tetrahydropyrazino[2,1-f]purine-2,4(1H,3H)-dione]"
> 1000,23,1,> 10000,,,,631 ± 122,,,,,,,,"CCn1c(=O)c2c(nc3n2CCN(Cc2cc(Cl)cc(Cl)c2)C3)n(CC)c1=O [Compound 15m, 8-(3,5-dichlorobenzyl)-1,3-diethyl-6,7,8,9-tetrahydropyrazino[2,1-f]purine-2,4(1H,3H)-dione]"
